Source: patent US7977336B2, “Aminopyrimidine derivatives as PLK1 inhibitors” (Banyu Pharmaceutical Co. Ltd, priority 2006, dated 2011)

Assays:
[1] = target: T1, PLK1 (Wild Type) (Homo sapiens, UniProt P53350); test: Inhibitory effect against PLK1 activity (Method B), PLK1 wild type, [γ-33P]ATP peptide phosphorylation; format: biochemical; conditions: 10 μM ATP, 20 μM substrate peptide, 25° C., 120 minutes
T1 construct: the N terminus of a full-length cDNA of a wild type PLK1 is fused with GST; purchased Carna Biosciences Inc; host or cells: insect cell (baculovirus)
Source text: 2. Measurement of Inhibitory Effect against PLK1 Activity (Method B)
Human PLK1 was purchased from Carna Biosciences Inc. According to the Product Information from Carna Biosciences Inc., the present enzyme is an enzyme obtained by preparing a baculovirus for which the N terminus of a full-length cDNA of a wild type PLK1 is fused with GST (glutathione S-transferase), followed by highly expressing PLK1 transfected into an insect cell as a GST-fused protein, and then carrying out a purification with the use of glutathione sepharose chromatography.
For the measurement of the PLK1 activity, a synthetic peptide (arginine-arginine-arginine-aspartic acid-glutamic acid-leucine-methionine-glutamic acid-alanine-serine-phenylalanine-alanine-aspartic acid-glutamine-glutamic acid-alanine-lysine-valine) (SEQ. ID. NO.: 1) in which the serine surrounding sequence of the amino acid sequence No. 198 of CDC25C having been reported as the site for PLK1 substrate [EMBO Report, 3rd edition, 341 (2002)] is altered, was used as a substrate for the PLK1.
The reaction was carried out in accordance with the method as described by Toyoshima-Morimoto et al. [Nature, Vol. 410, 215-220, (2001)]. The volume of the reaction solution was 10.5 μl and the composition of the reaction buffer was a 20 mM Tris-HCl buffer (pH 7.4)/10 mM magnesium chloride/0.5 mM dithiothreitol/1 mM EGTA (ethylene glycol-bis (beta-aminoethylether-N,N,N′,N′-tetraacetic acid). Thereto, purified PLK1, 20 μM of the substrate peptide, 10 μM of non-labeled adenosine triphosphate (ATP), and 0.3 μCi [γ-^33P]-labeled ATP (>2500 Ci/mmole) were added to perform the reaction at a reaction temperature of 25° C. for 120 minutes. Thereafter, 20 μI of a 350 mM phosphate buffer was added to the reaction system to terminate the reaction, and the resultant solution was spotted onto a multi-screen phosphocellulose filter on a 384-well plate. After the phosphocellulose filter is washed with a 75 mM phosphate buffer and then dried, the radioactivity was measured with a liquid cintillation counter. The non-labeled and [γ-^33P]-labeled ATPs, and the multi-screen phosphocellulose filter were purchased from GE Healthcare Bio-Sciences, and Millipore Corporation, respectively.
Addition of the compound of the present invention to the reaction system was carried out by adding 0.5 μl of the solution prepared by preliminarily dissolving the compound in dimethylsulfoxide at a 20-fold concentration of the final concentration. A control was provided by adding 0.5 μl of dimethylsulfoxide to the reaction system.

[2] = tested on: HeLaS3 cells; test: Inhibitory effect against cell proliferation: PLK1 inhibition at cellular level (M phase arrest, phospho-histone H3); format: cell-based; conditions: Homo sapiens, HeLa S3, 18 hours after addition, concentration inducing 50% of maximum ratio of cells arrested at M phase (histone H3 Ser10 phosphorylation)
Description: 3. Measurement of the Inhibitory Effect against Cell Proliferation: Measurement of the Inhibitory Activity Against PLK1 at Cellular Level
For the measurement of the PLK 1 inhibitory activity of the compound at a cellular level, human uterine cervix cancer cell lines HeLaS3 cells were used. The HeLaS3 cell was obtained from American Type Culture Collection (ATTC), and cultured in a CO2-incubator of saturated steam by using Dulbecco's Modified Eagle's Medium containing 10% fetal calf serum at 37° C. in the presence of 5% CO2.
It has been reported that PLK 1 plays an important role in various stages of mitotic phase (M-phase) in mammalian cells (Nature Review Molecular Cell Biology (Nat. Rev. Mol. Cell. Biol.), Vol. 5, 429, (2004)). In fact, when mammalian cells are treated with PLK 1 siRNA to control the expression level, the cell cycle progression is inhibited and thus the cells are arrested at M phase. At the time, when the phosphorylation level of 10th serine residue on histone H3, which is thought to be required for a chromosome condensation in M phase, is examined, then it is observed that the level is enhanced to a high level. Thus, after treating the cells with the compound according to the invention, the phosphorylation level of histone H3 was examined by the indirect fluorescent antibody technique; the M phase cells were identified by using the level thereof as an indicator to analyze the ratio of cells arrested at M phase; and further EC50 value of each compound was calculated to evaluate the PLK1 inhibitory activity at a cellular level.
First, HeLaS3 cells were seeded into a lysine-treated 96-well plate (Falcon Corp.) in the proportion of 3,000 per one well, and allowed to stand still in the above-mentioned CO2 incubator. 24 hours after the seeding, the compound according to the invention, which is diluted in series, was added into each well of the plate, and further allowed to stand still in the CO2 incubator. 18 hours after the addition of the compound according to the invention, the culture medium containing the compound according to the invention in each well of the plate was removed, and then 100 μL of ice-cold 100% methanol (Wako Pure Chemical Industries, Ltd.) was added, to carry out cell fixation for 10 minutes and treatment of increasing the membrane permeability. Subsequently, to the wells in which the methanol was removed, 50 μL of 1% BSA/PBS was added, and then blocking was carried out for 30 minutes. Thereafter, for the primary antibody reaction, 50 μL of 1% BSA/PBS containing a […] Anti-phospho Histone H3 (Ser10) antibody (Upstate Corp.) was added to the wells, and the plate was left over at room temperature for 90 minutes. After terminating the reaction, each well was once washed with PBS; and for the second antibody reaction, 50 μL of 1% BSA/PBS containing […] Cy5-labelled antirabbit IgG (H+L) antibody (Chemicon) and 10 ug/mL DAPI (Sigma) which is a nucleus staining regent, was added, and further left over at room temperature for 90 minutes. After terminating the reaction, the reaction solution in wells was removed and replaced with 100 μL of PBS, and then fluorescence images were captured by using IN Cell Analyzer 1000 (manufactured by GE Amersham) to analyze the ratio of M phase cells (Mitotic index) in each view. When the maximum value of the ratio of cells arrested at M phase which can be induced by each drug is assumed as 100%, the drug concentration required for inducing 50% out of that 100% is defined as EC50.

[3] = target: T2, PLK1-T210D (Homo sapiens, UniProt P53350, T210D); test: Inhibitory effect against PLK1 activity (Method A), PLK1-T210D, [γ-33P]ATP peptide phosphorylation; format: biochemical; conditions: 50 μM ATP, 50 μM substrate peptide, 25° C., 20 minutes
T2 construct: GST (N, cleaved yes); made in house; host or cells: Spodoptera frugiperda Sf9 insect cells (baculovirus)
Source text: 1. Measurement of the Inhibitory Effect against PLK 1 Activity (Method A)
It has been known that 210th codon of human PLK1 which originally codes for threonine can be changed to an active type by altering the site into aspartic acid [Molecular and Cell Biology (Mol. Cell. Biol.), 17th edition, 3408 (1997)]. In order to obtain a human active type PLK1 protein, cDNA of mutated PLK1 (PLK1-T210D) of which the 210th codon codes for aspartic acid by substituting a base in the 210th codon of human PLK1 cDNA, was prepared. A baculovirus for which the N terminus of the PLK1-T210D cDNA is fused with GST (glutathione S-transferase) was prepared, and then the PLK1-T210D transfected into a Spodoptera frugiperda (Sf) 9 insect cell was highly expressed as a GST-fused protein. The cells were recovered and suspended in a lysis buffer (50 mM tris-hydrochloric acid buffer (pH 7.4)/150 mM sodium chloride/1 mM EDTA (ethylenediamine tetraacetic acid)/1 mM dithiothreitol/0.1% polyoxyethylene sorbitan monolaurate) to break cells with sonicator, and supernatant was recovered after a centrifugation. The supernatant was reacted on glutathione sepharose beads, and then the beads were washed with a lysis buffer. Thereafter, the beads were reacted in a lysis buffer containing Precision Protease (available from GE Healthcare Bioscience Company) to recover supernatant. […]
The reaction was carried out in accordance with the method of Toyoshima-Morimoto et al. [Nature, Vol. 410, 215-220, (2001)]. […] After washing the phosphocellulose filter with 75 mM phosphate buffer, the filter was dried to measure the radioactivity with a liquid scintillation counter. […]

T2 sequence (P53350 whole entry T210D): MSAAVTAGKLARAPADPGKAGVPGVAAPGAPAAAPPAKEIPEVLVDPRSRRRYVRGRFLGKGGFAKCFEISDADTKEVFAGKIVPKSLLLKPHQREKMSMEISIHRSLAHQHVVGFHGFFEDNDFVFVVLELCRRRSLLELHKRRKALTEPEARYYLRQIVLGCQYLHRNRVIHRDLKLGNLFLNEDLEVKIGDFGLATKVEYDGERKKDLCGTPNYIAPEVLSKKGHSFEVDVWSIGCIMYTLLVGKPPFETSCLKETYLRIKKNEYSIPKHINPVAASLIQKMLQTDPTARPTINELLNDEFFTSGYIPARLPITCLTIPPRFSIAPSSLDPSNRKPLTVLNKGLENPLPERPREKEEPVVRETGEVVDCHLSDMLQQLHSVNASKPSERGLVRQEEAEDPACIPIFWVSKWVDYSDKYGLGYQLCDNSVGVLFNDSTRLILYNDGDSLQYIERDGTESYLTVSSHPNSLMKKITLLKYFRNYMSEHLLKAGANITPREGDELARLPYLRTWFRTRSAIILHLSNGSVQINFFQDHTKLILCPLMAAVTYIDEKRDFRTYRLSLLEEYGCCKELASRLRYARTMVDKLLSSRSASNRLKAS
T1 sequence (P53350 whole entry, the tested form may be a part): as the sequence (P53350 whole entry T210D) above, with D210T counted along it

Row | IC50 [1] | EC50 [2] | IC50 [3] | Compound
1 | 2.6 nM | 4 nM | – | C[C@H](Nc1ncc(F)c(-c2cnc3c(Cl)cccn23)n1)c1ccc([C@H](O)CNC(C)(C)C)cc1 [Example 67, (1S)-2-(tert-butylamino)-1-[4-((1S)-1-{[4-(8-chloroimidazo[1,2-a]pyridin-3-yl)-5-fluoropyrimidin-2-yl]amino}ethyl)phenyl]ethanol]
2 | 3.4 nM | 11 nM | – | C[C@H](Nc1ncc(F)c(-c2cnc3c(Cl)cccn23)n1)c1ccc(C(O)C(C)(C)N(C)C)cc1 (single isomer, unassigned) [Example 85]
3 | – | 5 nM | 11 nM | CCc1cccn2c(-c3nc(N[C@@H](C)c4ccc(C(O)[C@H]5CCCN5C)cc4)ncc3C#N)cnc12 (stereo partly drawn) [Example 55, 4-(8-ethylimidazo[1,2-a]pyridin-3-yl)-2-{[(1S)-1-(4-{hydroxy[(2R)-1-methylpyrrolidin-2-yl]methyl}phenyl)ethyl]amino}pyrimidine-5-carbonitrile]
4 | 2.4 nM | 13.9 nM | – | CC(C)N1CC(C(O)c2ccc([C@H](C)Nc3ncc(F)c(-c4cnc5c(Cl)cccn45)n3)cc2)C1 (single isomer, unassigned) [Example 89]
5 | 2.3 nM | 2.6 nM | – | CCc1cccn2c(-c3nc(N[C@@H](C)c4ccc([C@H](O)CNC(C)(C)C)cc4)ncc3C#N)cnc12 [Example 5, 2-[((1S)-1-{4-[(1S)-2-(tert-butylamino)-1-hydroxyethyl]phenyl}ethyl)amino]-4-(8-ethylimidazo[1,2-a]pyridin-3-yl)pyrimidine-5-carbonitrile]
6 | 1.4 nM | 4.6 nM | 4.1 nM | CCc1cccn2c(-c3nc(N[C@@H](C)c4ccc(C(O)C5CCN(C)CC5)cc4)ncc3C#N)cnc12 (single isomer, unassigned) [Example 24]
7 | 2.2 nM | 3.5 nM | – | C[C@H](Nc1ncc(F)c(-c2cnc3c(Cl)cccn23)n1)c1ccc([C@H](O)CNC2(C)CCCC2)cc1 [Example 71, (1S)-1-[4-((1S)-1-{[4-(8-chloroimidazo[1,2-a]pyridin-3-yl)-5-fluoropyrimidin-2-yl]amino}ethyl)phenyl]-2-[(1-methylcyclopentyl)amino]ethanol]
8 | 10 nM | 5.7 nM | – | Cc1cnc(N[C@@H](C)c2ccc([C@H](O)CNC(C)(C)C)cc2)nc1-c1cnc2c(C3CC3)cccn12 [Example 73, (1S)-2-(tert-butylamino)-1-[4-((1S)-1-{[4-(8-cyclopropylimidazo[1,2-a]pyridin-3-yl)-5-methylpyrimidin-2-yl]amino}ethyl)phenyl]ethanol]
9 | 1.4 nM | 4 nM | 7 nM | CCc1cccn2c(-c3nc(N[C@@H](C)c4ccc(C(O)[C@@H]5CCCN(C)C5)cc4)ncc3C#N)cnc12 (single isomer, unassigned) [Example 43]
10 | 1.8 nM | 2.9 nM | – | C[C@H](Nc1ncc(C#N)c(-c2cnc3c(C4CC4)cccn23)n1)c1ccc([C@H](O)[C@@]2(C)CCCN2C)cc1 [Example 66, 4-(8-cyclopropylimidazo[1,2-a]pyridin-3-yl)-2-[((1S)-1-{4-[(S)-[(2R)-1,2-dimethylpyrrolidin-2-yl](hydroxy)methyl]phenyl}ethyl)amino]pyrimidine-5-carbonitrile]
